Legend:
PIK3CA (human) [1] = molecular target: PIK3CA (human) (UniProt P42336); assay: Enzyme Assay
PIK3CG (human) [2] = molecular target: PIK3CG (human) (UniProt P48736); assay: Enzyme Assay
PIK3CD (Human) [3] = molecular target: PIK3CD (Human) (UniProt O00329); assay: Enzyme Assay
PIK3CA (human) [4] = molecular target: PIK3CA (human) (UniProt P42336); assay: Cell-Based Assay; details: rat-1
PIK3CG (human) [5] = molecular target: PIK3CG (human) (UniProt P48736); assay: Cell-Based Assay; details: u937
PIK3CD (Human) [6] = molecular target: PIK3CD (Human) (UniProt O00329); assay: Cell-Based Assay; details: rat-1

Sequence of PIK3CA (human) (P42336 whole entry, looked up): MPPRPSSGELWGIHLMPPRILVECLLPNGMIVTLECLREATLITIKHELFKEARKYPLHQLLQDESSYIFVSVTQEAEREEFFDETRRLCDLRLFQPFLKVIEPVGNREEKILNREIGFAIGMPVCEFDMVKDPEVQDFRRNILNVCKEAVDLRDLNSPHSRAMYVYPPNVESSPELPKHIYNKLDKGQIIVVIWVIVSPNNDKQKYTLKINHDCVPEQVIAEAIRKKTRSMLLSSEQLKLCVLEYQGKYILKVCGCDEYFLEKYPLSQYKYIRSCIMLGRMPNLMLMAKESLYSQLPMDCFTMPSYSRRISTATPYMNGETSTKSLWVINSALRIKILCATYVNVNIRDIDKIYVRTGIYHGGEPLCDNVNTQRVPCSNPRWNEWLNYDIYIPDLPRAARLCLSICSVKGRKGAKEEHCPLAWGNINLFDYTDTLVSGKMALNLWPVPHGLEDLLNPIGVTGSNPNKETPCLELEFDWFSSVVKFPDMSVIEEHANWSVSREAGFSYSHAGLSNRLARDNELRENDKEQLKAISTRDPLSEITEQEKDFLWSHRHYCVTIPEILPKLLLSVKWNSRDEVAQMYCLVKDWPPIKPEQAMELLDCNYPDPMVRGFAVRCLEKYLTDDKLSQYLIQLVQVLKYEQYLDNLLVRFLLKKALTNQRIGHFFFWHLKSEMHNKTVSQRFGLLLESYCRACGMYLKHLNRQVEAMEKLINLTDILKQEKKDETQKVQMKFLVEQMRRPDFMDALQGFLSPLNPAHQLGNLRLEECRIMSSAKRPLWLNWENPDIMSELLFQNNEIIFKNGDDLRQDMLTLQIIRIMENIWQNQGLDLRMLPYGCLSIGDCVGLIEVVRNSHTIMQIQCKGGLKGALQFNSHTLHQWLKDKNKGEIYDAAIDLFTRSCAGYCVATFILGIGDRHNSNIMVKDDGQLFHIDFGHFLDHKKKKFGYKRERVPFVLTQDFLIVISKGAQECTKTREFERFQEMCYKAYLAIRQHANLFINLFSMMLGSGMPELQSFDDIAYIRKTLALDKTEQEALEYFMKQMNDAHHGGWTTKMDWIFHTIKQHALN
Sequence of PIK3CG (human) (P48736 whole entry, looked up): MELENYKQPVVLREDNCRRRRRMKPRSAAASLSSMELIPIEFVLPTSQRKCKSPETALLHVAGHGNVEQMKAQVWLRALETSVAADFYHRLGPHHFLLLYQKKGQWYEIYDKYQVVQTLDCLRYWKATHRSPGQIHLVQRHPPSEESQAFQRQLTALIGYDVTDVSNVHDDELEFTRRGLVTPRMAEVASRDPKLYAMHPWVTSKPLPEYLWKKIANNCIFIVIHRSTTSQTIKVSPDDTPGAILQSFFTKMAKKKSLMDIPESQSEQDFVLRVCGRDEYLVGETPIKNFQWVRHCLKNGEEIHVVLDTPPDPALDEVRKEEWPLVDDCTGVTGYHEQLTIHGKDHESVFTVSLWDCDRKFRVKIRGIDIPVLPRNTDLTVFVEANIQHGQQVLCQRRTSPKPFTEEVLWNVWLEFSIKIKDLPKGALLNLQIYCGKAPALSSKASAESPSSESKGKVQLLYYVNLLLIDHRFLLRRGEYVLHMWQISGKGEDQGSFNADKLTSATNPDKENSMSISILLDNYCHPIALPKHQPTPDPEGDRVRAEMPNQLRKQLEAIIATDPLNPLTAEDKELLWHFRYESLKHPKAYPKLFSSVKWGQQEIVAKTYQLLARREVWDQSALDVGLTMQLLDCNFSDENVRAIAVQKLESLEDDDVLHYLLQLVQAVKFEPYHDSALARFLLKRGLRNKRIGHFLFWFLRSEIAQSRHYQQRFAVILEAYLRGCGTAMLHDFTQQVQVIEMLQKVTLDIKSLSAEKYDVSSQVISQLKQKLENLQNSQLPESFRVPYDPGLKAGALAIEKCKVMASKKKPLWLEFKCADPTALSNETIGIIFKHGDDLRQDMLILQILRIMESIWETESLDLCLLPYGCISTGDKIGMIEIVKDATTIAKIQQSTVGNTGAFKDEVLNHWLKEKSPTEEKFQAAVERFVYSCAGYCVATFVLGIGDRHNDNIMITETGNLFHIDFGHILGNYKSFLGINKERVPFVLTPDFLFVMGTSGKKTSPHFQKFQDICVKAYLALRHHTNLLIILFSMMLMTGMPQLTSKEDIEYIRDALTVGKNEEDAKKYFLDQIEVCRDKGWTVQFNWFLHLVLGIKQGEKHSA
Sequence of PIK3CD (Human) (O00329 whole entry, looked up): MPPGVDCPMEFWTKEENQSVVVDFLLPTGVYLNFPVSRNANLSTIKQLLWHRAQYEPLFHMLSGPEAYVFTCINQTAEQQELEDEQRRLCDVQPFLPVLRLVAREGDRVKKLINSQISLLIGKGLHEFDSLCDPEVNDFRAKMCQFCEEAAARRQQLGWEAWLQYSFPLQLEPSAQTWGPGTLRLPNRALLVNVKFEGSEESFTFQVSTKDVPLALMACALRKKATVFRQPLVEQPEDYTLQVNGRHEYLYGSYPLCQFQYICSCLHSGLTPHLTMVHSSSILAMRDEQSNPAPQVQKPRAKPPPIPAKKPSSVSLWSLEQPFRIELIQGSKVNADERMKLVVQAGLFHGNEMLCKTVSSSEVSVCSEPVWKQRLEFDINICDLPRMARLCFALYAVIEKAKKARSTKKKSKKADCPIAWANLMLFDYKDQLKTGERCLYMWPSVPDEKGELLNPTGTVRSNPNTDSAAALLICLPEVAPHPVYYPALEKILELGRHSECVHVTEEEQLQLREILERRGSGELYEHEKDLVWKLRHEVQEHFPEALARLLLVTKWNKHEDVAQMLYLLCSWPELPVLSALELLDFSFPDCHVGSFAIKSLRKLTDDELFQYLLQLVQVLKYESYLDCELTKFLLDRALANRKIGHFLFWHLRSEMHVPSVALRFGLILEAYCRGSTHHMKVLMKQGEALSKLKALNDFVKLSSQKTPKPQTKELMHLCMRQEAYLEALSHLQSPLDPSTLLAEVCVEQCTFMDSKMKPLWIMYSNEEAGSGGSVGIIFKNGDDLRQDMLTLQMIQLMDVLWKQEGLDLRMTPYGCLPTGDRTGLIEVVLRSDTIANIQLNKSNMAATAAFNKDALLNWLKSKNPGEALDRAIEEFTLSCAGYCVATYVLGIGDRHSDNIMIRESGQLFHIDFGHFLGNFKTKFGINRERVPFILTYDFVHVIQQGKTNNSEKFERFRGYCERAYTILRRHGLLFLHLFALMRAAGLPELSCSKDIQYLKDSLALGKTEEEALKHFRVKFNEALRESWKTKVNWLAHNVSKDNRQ

Row | SMILES | IC50 (PIK3CA (human) [1]) [µM] | IC50 (PIK3CG (human) [2]) [µM] | IC50 (PIK3CD (Human) [3]) [µM] | IC50 (PIK3CA (human) [4]) [µM] | IC50 (PIK3CG (human) [5]) [µM] | IC50 (PIK3CD (Human) [6]) [µM]
1 | Cc1nc(N)nc(N2C[C@@H](O)C[C@H]2c2nc3cccc(C(F)(F)F)c3c(=O)n2N2CCOCC2)c1C#N | 2 | 0.1 | 0.066 | 4.59 | 0.083 | 0.092
2 | N#Cc1c(N)ncnc1N1C[C@@H](F)C[C@H]1c1nc2cccc(C(F)(F)F)c2c(=O)n1-c1ccccc1 | 2.4 | 0.055 | 0.008 | 0.766 | 0.031 | 0.01
3 | Cc1nc(N)nc(N2C[C@@H](O)C[C@H]2c2nc3cccc(C(F)(F)F)c3c(=O)n2-c2cccnc2)c1C#N | 1.8 | 0.22 | 0.96 | > 10 | 0.206 | 0.067
4 | Cc1nc(N)nc(N2C[C@@H](O)C[C@H]2c2nc3cccc(C(F)(F)F)c3c(=O)n2-c2cccc(F)c2)c1C#N | 1.7 | 0.08 | 0.024 | 6.57 | 0.01 | 0.016
5 | N#Cc1c(N)ncnc1N1C[C@@H](O)C[C@H]1c1nc2cccc(Cl)c2c(=O)n1-c1ccccc1 | 1 | 0.05 | 0.004 | 2.85 | 0.268 | < 0.003
6 | Cc1nc(N)nc(N2CCC[C@H]2c2nc3ccc(F)c(S(C)(=O)=O)c3c(=O)n2-c2ccccc2)c1C#N | 5.5 | 1.1 | 0.038 | > 10 | 1.58 | 0.103
7 | N#Cc1c(N)ncnc1N1C[C@@H](O)C[C@H]1c1nc2ccc(F)c(F)c2c(=O)n1-c1ccccc1 | 4 | 1.3 | 0.096 | > 10 | 1.59 | 0.045
8 | Nc1nc(N2CCC[C@H]2c2nc3cccc(C(F)(F)F)c3c(=O)n2-c2cncc(F)c2)c2nc[nH]c2n1 | > 10 | 0.32 | 0.16 | > 10 | 0.324 | 0.164
9 | CC1(n2c([C@@H]3CCCN3c3ncnc(N)c3C#N)nc3cccc(Cl)c3c2=O)CC1 | 0.59 | 0.019 | < 0.003 | 4.23 | 0.037 | 0.005
10 | N#Cc1c(N)ncnc1N1C[C@@H](O)C[C@H]1c1nc2cccc(F)c2c(=O)n1-c1ccccc1 | > 10 | 2.1 | 0.082 | > 10 | 0.709 | 0.023
11 | N#Cc1c(N)ncnc1N1CCC[C@H]1c1nc2cccc(Cl)c2c(=O)n1C1CC1 | 0.56 | 0.025 | 0.007 | 4.02 | 0.074 | 0.043
12 | Cc1nc(N)nc(N2C[C@@H](O)C[C@H]2c2nc3cccc(Cl)c3c(=O)n2C2CC2)c1C#N | 0.698 | 0.085 | 0.221 | 4.23 | 0.219 | 0.086
13 | O=c1c2c(Cl)cccc2nc([C@@H]2C[C@H](OC(F)F)CN2c2ncnc3[nH]cnc23)n1-c1ccccc1 | 0.62 | 0.034 | 0.005 | > 10 | 0.117 | 0.017
14 | CO[C@H]1C[C@@H](c2nc3cccc(C(F)(F)F)c3c(=O)n2-c2ccccc2)N(c2ncnc(N)c2C#N)C1 | 7.6 | 0.46 | 0.018 | – | 0.671 | 0.035
15 | Nc1nc(N2CCC[C@H]2c2nc3cccc(Cl)c3c(=O)n2C2CCCCC2)c2nc[nH]c2n1 | 1.78 | 0.096 | 0.024 | > 10 | – | 0.149
16 | Cc1nc(N)nc(N2C[C@@H](O)C[C@H]2c2nc3cccc(C(F)(F)F)c3c(=O)n2-c2ccccc2)c1C#N | 0.78 | 0.005 | < 0.003 | – | 0.059 | 0.008
17 | N#Cc1c(N)ncnc1N1CCC[C@H]1c1nc2cccc(Cl)c2c(=O)n1N1CCCCC1 | > 10 | 3.2 | 0.12 | > 10 | – | 0.278
18 | O=c1c2c(Cl)cccc2nc([C@@H]2CCCN2c2ncnc3[nH]cnc23)n1C1CCOCC1 | 4.55 | 0.295 | 0.059 | > 10 | – | 0.179
19 | COc1ccc(-n2c([C@@H]3CCCN3c3ncnc4[nH]cnc34)nc3cccc(Cl)c3c2=O)cn1 | > 10 | 1.9 | 0.66 | > 10 | – | 1.4
20 | N#Cc1c(N)ncnc1N1CCC[C@H]1c1nc2cccc(Cl)c2c(=O)n1N1CCOCC1 | 1.6 | 0.2 | 0.011 | > 10 | – | 0.02
21 | Cc1nc(N)nc(N2CCC[C@H]2c2nc3cc(F)cc(F)c3c(=O)n2-c2ccccc2)c1C#N | 5.6 | 3.1 | 0.073 | > 10 | – | 0.148
22 | Nc1nc(N2CCC[C@H]2c2nc3cccc(Cl)c3c(=O)n2N2CCCCC2)c2nc[nH]c2n1 | 2.3 | 0.13 | 0.012 | 8.58 | – | 0.291
23 | CN(C)n1c([C@@H]2CCCN2c2nc(N)nc3[nH]cnc23)nc2cccc(Cl)c2c1=O | 1.2 | 0.78 | 0.11 | 2.86 | – | 0.128
24 | O=c1c2c(Cl)cccc2nc([C@@H]2CCCN2c2ncnc3[nH]cnc23)n1N1CCOCC1 | 2.8 | 0.14 | 0.035 | > 10 | – | 0.08
25 | N#Cc1c(N)ncnc1N1CCC[C@H]1c1nc2ccc(F)c(C(F)(F)F)c2c(=O)n1-c1ccccc1 | 4.2 | 0.5 | 0.013 | – | 0.211 | –
26 | N#Cc1c(N)ncnc1N1CCC[C@H]1c1nc2cc(F)cc(F)c2c(=O)n1-c1ccccc1 | > 10 | > 10 | 0.043 | > 10 | – | 0.292
27 | O=c1c2c(Cl)cccc2nc([C@@H]2CSCN2c2ncnc3[nH]cnc23)n1-c1ccccc1C1CC1 | 7.9 | 0.34 | 0.021 | 7.14 | – | 0.142
28 | CO[C@H]1C[C@@H](c2nc3cccc(C(F)(F)F)c3c(=O)n2-c2ccccc2)N(c2nc(N)nc(C)c2C#N)C1 | 2.1 | 0.107 | 0.024 | – | 0.227 | 0.182
29 | CO[C@H]1C[C@@H](c2nc3cccc(Cl)c3c(=O)n2N2CCOCC2)N(c2nc(N)nc(C)c2C#N)C1 | 1.23 | 0.053 | 0.023 | > 10 | – | 0.029

Next, values leading:

Row | IC50 (PIK3CA (human) [1]) [µM] | IC50 (PIK3CG (human) [2]) [µM] | IC50 (PIK3CD (Human) [3]) [µM] | IC50 (PIK3CA (human) [4]) [µM] | IC50 (PIK3CG (human) [5]) [µM] | IC50 (PIK3CD (Human) [6]) [µM] | SMILES
30 | 0.35 | 0.019 | 0.01 | > 10 | 0.059 | < 0.003 | Nc1nc(N2CCC[C@H]2c2nc3cccc(Cl)c3c(=O)n2-c2ccccc2)c2ncsc2n1
31 | 5.21 | 0.07 | < 0.003 | 2.2 | 0.027 | 0.013 | Cc1ccccc1-n1c([C@@H]2CCCN2c2ncnc(N)c2C#N)nc2cccc(Cl)c2c1=O
32 | 3.7 | 0.305 | 0.052 | > 10 | 0.216 | 0.11 | Cn1cnc2c(N3CCC[C@H]3c3nc4cccc(Cl)c4c(=O)n3-c3ccccc3)nc(N)nc21
33 | 5.25 | 0.505 | 2.5 | – | 2.37 | 0.476 | Cn1cnc2c(N3CCC[C@H]3c3nc4cccc(Cl)c4c(=O)n3N3CCOCC3)nc(N)nc21
34 | 8.4 | 0.22 | 0.27 | > 10 | – | 0.651 | COc1ccc(-n2c([C@@H]3CCCN3c3nc(N)nc4[nH]cnc34)nc3cccc(Cl)c3c2=O)cn1
35 | > 10 | > 10 | 0.043 | > 10 | – | > 10 | Cc1nc(N)c(C#N)c(N2CCC[C@H]2c2nc3cccc(C(F)(F)F)c3c(=O)n2-c2ccccc2)n1
36 | 0.37 | 0.049 | 0.017 | 2.09 | – | 0.042 | Cc1nc(N)nc(N2CCC[C@H]2c2nc3ccc(F)c(C)c3c(=O)n2-c2ccccc2)c1C#N
37 | > 10 | 4.3 | 0.15 | > 10 | – | 0.318 | Nc1nc(N2CCC[C@H]2c2nc3cc(F)cc(F)c3c(=O)n2-c2ccccc2)c2nc[nH]c2n1
38 | 5.55 | 2.3 | 0.09 | > 10 | – | < 0.003 | N#Cc1c(N)ncnc1N1CCC[C@H]1c1nc2ccc(F)c(F)c2c(=O)n1-c1ccccc1
39 | 0.34 | 0.07 | 0.009 | > 10 | – | 0.077 | Cc1nc(N)nc(N2CCC[C@H]2c2nc3cccc(OC(F)F)c3c(=O)n2-c2ccccc2)c1C#N
40 | 0.46 | 0.046 | 0.005 | 0.21 | – | 0.037 | Cc1nc(N)nc(N2CCC[C@H]2c2nc3cccc(C(F)(F)F)c3c(=O)n2-c2ccccc2)c1C#N
41 | 2.4 | 0.59 | 0.012 | > 10 | – | 0.166 | N#Cc1c(N)ncnc1N1CCC[C@H]1c1nc2cccc(OC(F)F)c2c(=O)n1-c1ccccc1
42 | 2.94 | 0.202 | 0.018 | > 10 | – | 0.057 | O=c1c2c(Cl)cccc2nc([C@@H]2CSCN2c2ncnc3[nH]cnc23)n1-c1ccccc1
43 | 0.39 | 0.03 | 0.018 | – | 0.522 | – | Cc1nc(N)nc(N2CCC[C@H]2c2nc3ccc(F)c(C(F)(F)F)c3c(=O)n2-c2ccccc2)c1C#N

Reference: the Kinase Knowledgebase extract (Sharma et al. 2016)
